Data taken from patent US10842884B2, “Endosomolytic agents for gene therapy” (UCB Biopharma SRL, priority 2016, dated 2020).
Structures can show the parent of a compound that is named as a salt.

Legend:
[1] = system: Chinese Hamster Ovary (CHO) cells; assay: Transfection of CHO cells using lipopolyplexes, β-galactosidase reporter gene expression; type: cell-based
Source text: Transfection of Chinese Hamster Ovary (CHO) Cells Using Lipopolyplexes
Plasmid pEGlacZ containing the bacterial β-galactosidase gene under the control of the human cytomegalovirus immediate early promoter was constructed using standard molecular cloning techniques. The 7676 base pair (bp) plasmid was derived by cleavage of pGFP-N1 (Clontech) with HindIII and BclI to remove the reporter gene fragment. The β-galactosidase coding region from pSV-β-galactosidase (Promega) was then inserted via a HindIII to BamHI fragment. Plasmid DNA was then purified using an anion-exchange column (Qiagen Ltd). The average molecular weight per base pair was calculated to be 620.84 Da (310.5 Da for a monophosphorylated nucleotide). The amount of negative charge on the plasmid was then determined on the basis that a single negative charge is associated with each nucleotide.
[…] Lipid films were formed by rotary evaporation at 60° C. and further dried on a freeze drier overnight. Rehydration of the lipid film was performed by adding 4 mL of deionised water and […] 1M NaOH at 60° C. with vigorous agitation in the presence of […] diameter glass beads, taking care to maintain pH in the range 7.5 to 8.0, resulting in the formation of multi-lamellar vesicles (MLVs).
Stock solutions of R26 peptide as a DNA condensing agent at 144 μg/ml and plasmid DNA at 60 μg/ml were prepared in de-ionized water. Equal volumes of each were mixed by adding the plasmid DNA drop-wise to the R26 solution with vortexing. The charge ratio of the polyplex was 3.9:1 (peptide positive charged residues to DNA negative charged phosphates).
The polyplex preparation was diluted in 10 mM HEPES buffer pH 8 to 15 μg/ml DNA equivalent. […] Lipopolyplexes were formed by adding equal volumes of polyplex solution drop-wise to liposome suspension with vortexing.
CHO cells were seeded into 24-wellplates at 100 000 cells per well in Opti-MEM (Gibco BRL) media containing 10% dialysed foetal calf serum (FCS, Gibco BRL) and maintained 37° C. in 5% CO2 incubator for 24 h before the experiment. The adherent cells were washed once in Opti-MEM (Gibco BRL) prior to transfection. Washed medium was removed and replaced with 0.5 ml of Opti-MEM to which 167 μl of lipopolyplex was added ([…]). Individual lipopolyplex preparations were tested in triplicate wells. Cells were incubated for a further 4 h at 37° C. in 5% CO2 before removal of the medium and non-cell associated lipopolyplex and addition of 1 ml of fresh medium (Dulbecco's modified Eagle's medium (DMEM), plus glutamate, asparagine, adenosine, guanosine, cytidine, uridine, thymidine and 10% FCS.
Cells were cultured for a further 72 h before harvesting, the medium was aspirated and the cells washed twice with 1 ml phosphate buffered saline. Cells were lysed by the addition of 200 μl per well of lysis buffer (Promega) and the plate was agitated on an orbital mixer for 15 min. The lysates were transferred to individual Eppendorf tubes, taking care to remove attached cells by scraping with a pipette tip prior to removal. Cell debris was removed by centrifugation in a microfuge for 5 min followed by transfer of the supernatant into clean Eppendorf tubes.
Levels of β-galactosidase (β-gal) activity were determined using a colorimetric enzyme assay kit (Promega) as follows: 50 μl of cell extract was incubated with the kit substrate, O-nitrophenyl-β-D-galactopyranoside in buffer solution for 30 min at 37° C. The reaction was stopped by the addition of 150 μl of 1M sodium carbonate and the absorbance measured at 420 nm (Multiskan Ascent plate reader, Labsystems). Absorbance values were interpolated from a calibration curve to give enzyme activity in mU per ml. In turn these values were normalised in reference to lysate protein concentration as determined by a BCA assay kit (Pierce) and expressed as mU of β-gal per mg of protein.
An anionic liposome composition was evaluated comprising DOPC and CHEMS in the presence and absence of Compound 2. […]

| SMILES | reporter gene expression ([1]; Example 22, FIG. 1, cholesterol/oleic acid totally substituted with Compound 2 at 40 mol %) | reporter gene expression levels ([1]; Example 22, FIG. 1, higher lipid to DNA ratios (above 2:1), exception: 5:1 lipid to DNA with 20 mol % Compound 2) | reporter gene expression ([1]; Example 22, FIG. 1, lipid to DNA ratio 2:1, Compound 2 content 1 to 40 mol %) | expression of β-galactosidase ([1]; Example 22, FIG. 1, lipopolyplexes with cholesterol, oleic acid and DOPC, 1 mol % Compound 2) | levels of β-galactosidase expression ([1]; Example 23, FIG. 2, DOPC/CHEMS lipopolyplexes, 20 mol % Compound 2, lipid to DNA ratios 0.6:1 to 5.5:1) | transfection enhancement via endosomolytic properties ([1]; overall conclusion from Examples 22 and 23) | melting point |
| --- | --- | --- | --- | --- | --- | --- | --- |
| CC(C)CCCC(C)C1CCC2C3CC=C4C[C@H](OP(=O)(O)OCCCCCCCCCCCc5cc(CC(C)(C)C(=O)O)cc(CC(C)(C)C(=O)O)c5)CC[C@]4(C)C3CC[C@]12C (stereo partly drawn) [Compound 2, 3,3′-(5-(11-(((((3R,10R,13R)-10,13-Dimethyl-17-(6-methylheptan-2-yl)-2,3,4,7,8,9,10,11,12,13,14,15,16,17-tetradecahydro-1H-cyclopenta[a]phenanthren-3-yl)oxy)(hydroxy)phosphoryl)oxy)undecyl)-1,3-phenylene)bis(2,2-dimethylpropanoic acid), ammonium salt] | highest | not significant | increased with increasing content of Compound 2 | little or no expression | high, significant levels | confirming the effectiveness of Compound 2 as a transfection enhancing agent | – |
| CCCCCCCCCCCCCCCCCCOC[C@@H](COP(=O)(OCCCCCCCCCCCc1cc(CC(C)(C)C(=O)OC)cc(CC(C)(C)C(=O)OC)c1)Oc1ccccc1Cl)OCCCCCCCCCCCCCCCCCC (stereo partly shown) | – | – | – | – | – | – | 27 to 27.5 °C |
